According to patent US20260297081A1, “COMPOUNDS AND METHODS OF TREATING CANCERS” (Cullgen Inc., priority 2023, published 2026):

Assays:
Format in all cases: cell-based
T47D cells = experiment: Anti-proliferation (viability) of ER+ breast cancer T47D cells, 6 days (Table 7, FIG. 2B); conditions: Homo sapiens, 144 h; T47D cells, 6 days, 10-point serial dilution; read-out: GI IC50 in T47D
Procedure: To evaluate anti-proliferation activities of heterobifunctional compounds, NSCLC Calu-1 or ER+ breast cancer T47D cells were treated with selected heterobifunctional compounds following a 10-point serial dilution for 3 or 6 days, respectively.
To verify that heterobifunctional compound-mediated degradation is dependent on the binding to CDK4-cyclin D complex, a negative control compound, CPD-143, which is derived from active heterobifunctional compound CPD-10 was designed. CPD-143 bears the same DDB1 ligand and linker as CPD-10 but with a modified warhead to impair the binding of the control compound to CDK4.

CDK4 [1] = target: T1, CDK4 (Homo sapiens, UniProt P11802+Q16531); experiment: CDK4 percentage degradation in Calu-1 cells (Table 6); design: Cells that express cyclin D1-3 and CDK4/6 proteins were treated with heterobifunctional compounds; endogenous in cells; host or cells: Calu-1; conditions: 16 hours; for inhibition at 0.04 µM: 40 nM; for inhibition at 0.2 µM: 200 nM
How it was run: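 Percentage degradation of Cyclin D1 and CDK4 derived from densitometry of ECL Western blots on lysates of Calu-1 cells. Treatment was 16 h with compound at either 40 nM or 200 nM.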
Target sequence in this assay (P11802 2-303 limits assumed): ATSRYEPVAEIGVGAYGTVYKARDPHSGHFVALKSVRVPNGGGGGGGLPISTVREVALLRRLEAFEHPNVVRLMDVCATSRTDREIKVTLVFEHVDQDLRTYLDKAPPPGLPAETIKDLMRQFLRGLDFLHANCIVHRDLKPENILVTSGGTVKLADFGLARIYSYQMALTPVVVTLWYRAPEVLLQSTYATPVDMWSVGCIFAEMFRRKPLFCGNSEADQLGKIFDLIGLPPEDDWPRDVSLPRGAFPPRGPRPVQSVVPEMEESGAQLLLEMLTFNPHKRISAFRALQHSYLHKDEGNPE
Target sequence in this assay (P24385 whole entry partner): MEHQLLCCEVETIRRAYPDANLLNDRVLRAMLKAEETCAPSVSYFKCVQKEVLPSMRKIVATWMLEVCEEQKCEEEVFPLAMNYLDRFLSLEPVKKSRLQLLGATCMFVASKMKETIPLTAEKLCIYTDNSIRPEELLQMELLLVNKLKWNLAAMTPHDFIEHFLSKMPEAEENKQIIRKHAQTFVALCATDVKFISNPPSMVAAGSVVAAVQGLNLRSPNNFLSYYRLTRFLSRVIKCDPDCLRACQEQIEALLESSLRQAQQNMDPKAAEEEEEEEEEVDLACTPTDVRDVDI
Target sequence in this assay (Q16531 2-1140 limits assumed): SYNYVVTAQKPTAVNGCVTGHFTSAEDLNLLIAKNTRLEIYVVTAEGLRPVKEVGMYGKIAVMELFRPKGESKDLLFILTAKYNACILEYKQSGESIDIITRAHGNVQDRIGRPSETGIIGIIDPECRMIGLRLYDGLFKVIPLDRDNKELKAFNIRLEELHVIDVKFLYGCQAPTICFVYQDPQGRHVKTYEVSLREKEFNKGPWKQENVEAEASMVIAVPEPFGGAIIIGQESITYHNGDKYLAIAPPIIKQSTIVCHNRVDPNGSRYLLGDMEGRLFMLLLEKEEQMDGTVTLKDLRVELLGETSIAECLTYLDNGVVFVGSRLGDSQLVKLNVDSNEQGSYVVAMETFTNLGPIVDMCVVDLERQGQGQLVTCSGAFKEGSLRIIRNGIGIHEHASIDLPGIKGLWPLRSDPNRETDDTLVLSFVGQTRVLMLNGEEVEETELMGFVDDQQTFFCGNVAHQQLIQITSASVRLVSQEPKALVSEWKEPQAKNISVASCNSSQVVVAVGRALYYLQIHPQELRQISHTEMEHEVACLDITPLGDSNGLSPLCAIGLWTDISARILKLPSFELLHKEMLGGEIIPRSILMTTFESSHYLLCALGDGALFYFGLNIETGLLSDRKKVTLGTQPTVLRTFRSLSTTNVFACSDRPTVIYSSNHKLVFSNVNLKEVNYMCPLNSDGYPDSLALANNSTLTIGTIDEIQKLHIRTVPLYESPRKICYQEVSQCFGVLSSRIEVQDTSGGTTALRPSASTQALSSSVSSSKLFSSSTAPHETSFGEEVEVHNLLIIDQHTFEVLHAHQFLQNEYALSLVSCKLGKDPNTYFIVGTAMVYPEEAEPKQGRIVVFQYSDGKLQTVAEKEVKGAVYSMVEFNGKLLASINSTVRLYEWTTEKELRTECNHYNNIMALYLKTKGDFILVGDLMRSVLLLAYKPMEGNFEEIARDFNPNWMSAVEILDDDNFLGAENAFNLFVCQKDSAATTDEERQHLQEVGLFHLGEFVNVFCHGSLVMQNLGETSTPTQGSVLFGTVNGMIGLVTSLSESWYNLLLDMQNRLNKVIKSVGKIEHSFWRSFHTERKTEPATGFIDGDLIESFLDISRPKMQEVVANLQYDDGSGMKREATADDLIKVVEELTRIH

MCF7 cells = experiment: Anti-proliferation (viability) of MCF7 cells (Table 7, FIG. 2B); conditions: Homo sapiens, MCF7, MCF7 cells, 3-6 days, 10-point serial dilution; read-out: GI IC50 in MCF-7
Calu-1 cells = experiment: Anti-proliferation (viability) of NSCLC Calu-1 cells, 3 days (Table 7, FIG. 2B); conditions: Homo sapiens, 72 h; Calu-1 cells, 3 days, 10-point serial dilution; read-out: GI IC50 in Calu-1
How it was run: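 Viability after a 10-point dilution series of heterobifunctional compounds, with exposure of 6 days for ER+ breast T47D cells and 3 days for NSCLC Calu-1 cells.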

CDK4 [2] = target: T1, CDK4; experiment: HiBiT detection of HiBiT-tagged CDK4 protein level in MCF7 cells, 16 hours (Table 8); design: expressed in transfected cells; host or cells: MCF7; conditions: MCF7 cells stably expressing HiBiT tagged target proteins; for activity at 0.01 µM: 10 nM, read-out: % CDK4 Relative Level (10 nM); for activity at 0.1 µM: 100 nM, read-out: % CDK4 Relative Level (100 nM)
Procedure: HiBiT detection system quantitatively measures total amounts of HiBiT-tagged proteins using a luminescent based method. MCF7 cells stably expressing HiBiT tagged target proteins were treated with heterobifunctional compounds at indicated concentrations for 16 hours, then lysed with Nano-Glo HiBiT Lytic detection reagents.
Target sequence in this assay (P11802 whole entry): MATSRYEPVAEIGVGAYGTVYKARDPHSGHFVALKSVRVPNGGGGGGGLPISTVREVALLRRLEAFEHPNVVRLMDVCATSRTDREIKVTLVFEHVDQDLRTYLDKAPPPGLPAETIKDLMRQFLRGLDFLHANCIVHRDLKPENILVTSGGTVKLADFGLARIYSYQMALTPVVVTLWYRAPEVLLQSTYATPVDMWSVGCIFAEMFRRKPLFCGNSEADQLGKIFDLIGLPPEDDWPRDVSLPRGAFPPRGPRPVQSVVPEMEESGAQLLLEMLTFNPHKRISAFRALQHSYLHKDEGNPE
Target sequence in this assay (P24385 whole entry partner): as the sequence (P24385 whole entry partner) above
Target sequence in this assay (Q16531 2-1140 limits assumed): as the sequence (Q16531 2-1140 limits assumed) above

Structure (SMILES) | IC50 (T47D cells) [µM] | inhibition at 0.04 µM (CDK4 [1]) [%] | inhibition at 0.2 µM (CDK4 [1]) [%] | IC50 (MCF7 cells) [µM] | IC50 (Calu-1 cells) [µM] | activity at 0.01 µM (CDK4 [2]) [%] | activity at 0.1 µM (CDK4 [2]) [%]
CC(=O)c1c(C)c2cnc(Nc3ccc(N4CCN(CC(=O)NCC5CC(Nc6nc(C)ccc6C(=O)Nc6cc(C)n(C)n6)C5)CC4)cn3)nc2n(C2CCCC2)c1=O (stereo not drawn) [CPD-209, 2-((3-((2-(4-(6-((6-acetyl-8-cyclopentyl-5-methyl-7-oxo-7,8-dihydropyrido[2,3-d]pyrimidin-2-yl)amino)pyridin-3-yl)piperazin-1-yl)acetamido)methyl)cyclobutyl)amino)-N-(1,5-dimethyl-1H-pyrazol-3-yl)-6-methylnicotinamide] | ≥ 0.1 | 30 to 50 | 50 to 80 |  |  |  | 
CNc1ccc(C(=O)Nc2ccc(N(C)C)nn2)c(NC2CCN(C(=O)CCN3CCN(c4ccc(Nc5ncc6c(C)c(C(C)=O)c(=O)n(C7CCCC7)c6n5)nc4)CC3)C2)n1 (stereo not drawn) [CPD-218, 2-((1-(3-(4-(6-((6-acetyl-8-cyclopentyl-5-methyl-7-oxo-7,8-dihydropyrido[2,3-d]pyrimidin-2-yl)amino)pyridin-3-yl)piperazin-1-yl)propanoyl)pyrrolidin-3-yl)amino)-N-(6-(dimethylamino)pyridazin-3-yl)-6-(methylamino)nicotinamide] | 0.05 to 0.1 | 50 to 80 | 50 to 80 | 0.05 to 0.1 |  |  | 
CNc1ccc(C(=O)Nc2ccc(N(C)C)nn2)c(NC2CCC(NC(=O)CN3CCN(c4ccc(Nc5ncc6c(C)c(C(C)=O)c(=O)n(C7CCCC7)c6n5)nc4)CC3)C2)n1 (stereo not drawn) [CPD-219, 2-((3-(2-(4-(6-((6-acetyl-8-cyclopentyl-5-methyl-7-oxo-7,8-dihydropyrido[2,3-d]pyrimidin-2-yl)amino)pyridin-3-yl)piperazin-1-yl)acetamido)cyclopentyl)amino)-N-(6-(dimethylamino)pyridazin-3-yl)-6-(methylamino)nicotinamide] | 0.05 to 0.1 | 50 to 80 | 50 to 80 | 0.05 to 0.1 |  |  | 
[2H]C([2H])([2H])Nc1ccc(C(=O)Nc2cccc(C3CC3)n2)c(NC2CCN(C(=O)CN3CCN(c4ccc(Nc5ncc6c(C)c(C(C)=O)c(=O)n(C7CCCC7)c6n5)nc4)CC3)CC2)n1 [CPD-252, 2-((1-(2-(4-(6-((6-acetyl-8-cyclopentyl-5-methyl-7-oxo-7,8-dihydropyrido[2,3-d]pyrimidin-2-yl)amino)pyridin-3-yl)piperazin-1-yl)acetyl)piperidin-4-yl)amino)-N-(6-cyclopropylpyridin-2-yl)-6-((methyl-d3)amino)nicotinamide] | ≥ 0.1 |  |  |  |  |  | 
CNc1ccc(C(=O)Nc2cn(C)c(C3CC3)n2)c(NC2CC(CNC(=O)CN3CCN(c4ccc(Nc5ncc6c(C)c(C(C)=O)c(=O)n(C7CCCC7)c6n5)nc4)CC3)C2)n1 (stereo not drawn) [CPD-254, 2-((3-((2-(4-(6-((6-acetyl-8-cyclopentyl-5-methyl-7-oxo-7,8-dihydropyrido[2,3-d]pyrimidin-2-yl)amino)pyridin-3-yl)piperazin-1-yl)acetamido)methyl)cyclobutyl)amino)-N-(2-cyclopropyl-1-methyl-1H-imidazol-4-yl)-6-(methylamino)nicotinamide] | ≥ 0.1 |  |  | > 0.1 |  |  | 
CC(=O)c1c(C)c2cnc(Nc3ccc(N4CCN(CC(=O)NCC5CC(Nc6c(F)cccc6C(=O)Nc6cc(C)n(C)n6)C5)CC4)cn3)nc2n(C2CCCC2)c1=O (stereo not drawn) [CPD-265, 2-((3-((2-(4-(6-((6-acetyl-8-cyclopentyl-5-methyl-7-oxo-7,8-dihydropyrido[2,3-d]pyrimidin-2-yl)amino)pyridin-3-yl)piperazin-1-yl)acetamido)methyl)cyclobutyl)amino)-N-(1,5-dimethyl-1H-pyrazol-3-yl)-3-fluorobenzamide] | ≥ 0.1 |  |  |  |  |  | 
CC(=O)c1c(C)c2cnc(Nc3ccc(N4CCN(CC(=O)NCC5CC(Nc6c(C(=O)Nc7cc(C)n(C)n7)cccc6C(F)(F)F)C5)CC4)cn3)nc2n(C2CCCC2)c1=O (stereo not drawn) [CPD-266, 2-((3-((2-(4-(6-((6-acetyl-8-cyclopentyl-5-methyl-7-oxo-7,8-dihydropyrido[2,3-d]pyrimidin-2-yl)amino)pyridin-3-yl)piperazin-1-yl)acetamido)methyl)cyclobutyl)amino)-N-(1,5-dimethyl-1H-pyrazol-3-yl)-3-(trifluoromethyl)benzamide] | ≥ 0.1 |  |  |  |  |  | 
CC(=O)c1c(C)c2cnc(Nc3ccc(N4CCN(CC(=O)NCC5CC(Nc6nc(NC(C)C)ccc6C(=O)Nc6cc(C)on6)C5)CC4)cn3)nc2n(C2CCCC2)c1=O (stereo not drawn) [CPD-282, 2-((3-((2-(4-(6-((6-acetyl-8-cyclopentyl-5-methyl-7-oxo-7,8-dihydropyrido[2,3-d]pyrimidin-2-yl)amino)pyridin-3-yl)piperazin-1-yl)acetamido)methyl)cyclobutyl)amino)-6-(isopropylamino)-N-(5-methylisoxazol-3-yl)nicotinamide] |  | < 30 | < 30 | < 0.05 | ≤ 0.01 | 55 to 85 | 55 to 85
CC(=O)c1c(C)c2cnc(Nc3ccc(N4CCC5(CCN(CC(=O)N6CC7(CC(Nc8nc(NC(C)C)ccc8C(=O)Nc8cn9c(n8)CCC9)C7)C6)C5)C4)cn3)nc2n(C2CCCC2)c1=O (stereo not drawn) [CPD-565, 2-((2-(2-(7-(6-((6-acetyl-8-cyclopentyl-5-methyl-7-oxo-7,8-dihydropyrido[2,3-d]pyrimidin-2-yl)amino)pyridin-3-yl)-2,7-diazaspiro[4.4]nonan-2-yl)acetyl)-2-azaspiro[3.3]heptan-6-yl)amino)-N-(6,7-dihydro-5H-pyrrolo[1,2-a]imidazol-2-yl)-6-(isopropylamino)nicotinamide] |  |  |  | < 0.05 | ≤ 0.01 | > 85 | 55 to 85
CC(=O)c1c(C)c2cnc(Nc3ccc(CN4CCN(CC(=O)N5CCC6(CC(Nc7nc(NC(C)C)ccc7C(=O)Nc7ccc(N(C)C)nn7)C6)C5)CC4)cn3)nc2n(C2CCCC2)c1=O (stereo not drawn) [CPD-570, 2-((6-(2-(4-((6-((6-acetyl-8-cyclopentyl-5-methyl-7-oxo-7,8-dihydropyrido[2,3-d]pyrimidin-2-yl)amino)pyridin-3-yl)methyl)piperazin-1-yl)acetyl)-6-azaspiro[3.4]octan-2-yl)amino)-N-(6-(dimethylamino)pyridazin-3-yl)-6-(isopropylamino)nicotinamide] |  |  |  | < 0.05 | ≤ 0.01 | > 85 | 55 to 85
CC(=O)c1c(C)c2cnc(Nc3ccc(CN4CCN(CC(=O)NC5CC6(C5)CC(Nc5nc(NC(C)C)ccc5C(=O)Nc5cn(C)c(C7CC7)n5)C6)CC4)cn3)nc2n(C2CCCC2)c1=O (stereo not drawn) [CPD-589, 2-((6-(2-(4-((6-((6-acetyl-8-cyclopentyl-5-methyl-7-oxo-7,8-dihydropyrido[2,3-d]pyrimidin-2-yl)amino)pyridin-3-yl)methyl)piperazin-1-yl)acetamido)spiro[3.3]heptan-2-yl)amino)-N-(2-cyclopropyl-1-methyl-1H-imidazol-4-yl)-6-(isopropylamino)nicotinamide] |  |  |  | < 0.05 | ≤ 0.01 | 55 to 85 | 55 to 85
CC(=O)c1c(C)c2cnc(Nc3ccc(N4CCN(C5CCN(C(=O)C67CC(Nc8nc(NC(C)C)ccc8C(=O)Nc8cc9n(n8)CCC9)(C6)C7)C5)CC4)cn3)nc2n(C2CCCC2)c1=O (stereo not drawn) [CPD-592, 2-((3-(3-(4-(6-((6-acetyl-8-cyclopentyl-5-methyl-7-oxo-7,8-dihydropyrido[2,3-d]pyrimidin-2-yl)amino)pyridin-3-yl)piperazin-1-yl)pyrrolidine-1-carbonyl)bicyclo[1.1.1]pentan-1-yl)amino)-N-(5,6-dihydro-4H-pyrrolo[1,2-b]pyrazol-2-yl)-6-(isopropylamino)nicotinamide] |  |  |  | < 0.05 | ≤ 0.01 | 55 to 85 | 55 to 85
CNc1ccc(C(=O)Nc2ccc(N(C)C)nn2)c(NCCC(=O)N2CCN(c3ccc(Nc4ncc5cc(C(=O)N(C)C)n(C6CCCC6)c5n4)nc3)CC2)n1 [CPD-616, 7-cyclopentyl-2-((5-(4-(3-((3-((6-(dimethylamino)pyridazin-3-yl)carbamoyl)-6-(methylamino)pyridin-2-yl)amino)propanoyl)piperazin-1-yl)pyridin-2-yl)amino)-N,N-dimethyl-7H-pyrrolo[2,3-d]pyrimidine-6-carboxamide] |  |  |  | > 0.1 | ≥ 0.05 | > 85 | > 85
